# In patent US20040157902A1, “Integrin antagonists” (priority 2001, published 2004):
# Experiment: partition coefficient octanol/water at pH 7.4 (logD(7.4))
# Format: physicochemical
# From the text: If an active ingredient is introduced into an octanol/water mixture, it partitions between the two phases at a given pH in accordance with its lipophilicity/hydrophilicity. The ratio of the partitioning of the active ingredient between the octanol and water phases is known as the partition coefficient. Absorption of active ingredients requires that they both dissolve in aqueous media and also pass through the corresponding membranes. For the latter, a certain lipophilicity of the active ingredient is necessary. The requisite lipophilicity arises from the lipophilicity of the respective membrane. Thus, absorption in the intestine requires a logD value of >−1.50 and passage through the blood-brain barrier requires a logD value of >0.5 (Lipinski C. A: Adv. Drug Del. Rev. 23 (1997), 3-25). A favourable logD value is an essential prerequisite for absorption of an active ingredient.
# logD values given above and below are partition coefficients of the compounds in question octanol/water at a pH of 7.4 (logD(7.4)).
row,logD,SMILES
1,6.52,"O=C(CCCCNc1ccccn1)NCC(=O)NC(Cc1nnn[nH]1)c1ccc(-c2ccccc2)cc1 (stereo not drawn) [EMD 389 889, N-[1-biphenyl-4-yl-2-(1H-tetrazol-5-yl)ethyl]-2-[5-(pyridin-2-ylamino)pentanoylamino]-acetamide]"
2,6.19,"O=C(CNC(=O)NCCCNc1ccccn1)NC(Cc1nnn[nH]1)c1ccc(-c2ccccc2)cc1 (stereo not drawn) [EMD 387 890, N-[1-biphenyl-4-yl-2-(1H-tetrazol-5-yl)ethyl]-2-{3-[3-(pyridin-2-ylamino)propyl]ureido}acetamide]"
3,-0.38,CS(=O)(=O)NC(=O)CC(NC(=O)CNC(=O)CCCCNc1ccccn1)c1ccc(-c2ccccc2)cc1 (stereo not drawn) [EMD 387 803]
